In ChEMBL document CHEMBL1155586, “Streptazones A, B(1), B(2), C, and D: new piperidine alkaloids from streptomycetes” (2000):
The source made the active and inactive calls. The calls are words filed in the database; no cut-off is given here.

Key:
MCF7 [1] = assay: Cytotoxicity against human MCF7 cells at 50 umol/L; assay type: functional, cell-based
HMO2 = assay: Cytotoxicity against human HMO2 cells at 50 umol/L; assay type: functional, cell-based
Kato3 = assay: Cytotoxicity against human Kato3 cells at 50 umol/L; assay type: functional, cell-based
[2] = Cytotoxicity against human Kato3 cells; assay type: functional
MCF7 [3] = assay: Cytotoxicity against human MCF7 cells; assay type: functional
[4] = Cytotoxicity against human HMO2 cells; assay type: functional
HepG2 = assay: Cytotoxicity against human HepG2 cells; assay type: functional

C/C=C/C=C/C1=CC(=O)CCN1
Activity (MCF7 [1]): inactive
Activity (HMO2): inactive
Activity (Kato3): inactive

C/C=C1\C(=O)C=C2NCCC3OC213 (stereo not given) [STREPTAZONE A]
GI50 [2]: 0.6 µM
TGI [2]: 1 µM
GI50 (MCF7 [3]): 15 µM
TGI (MCF7 [3]): 50 µM
GI50 [4]: 0.5 µM
TGI [4]: 50 µM
GI50 (HepG2): < 0.1 µM
TGI (HepG2): 2.5 µM

C/C=C1\C=CC2=C1C(=O)CCN2
Activity (MCF7 [1]): inactive
Activity (HMO2): inactive
Activity (Kato3): inactive

C/C=C1\C(=O)C=C2NCCC=C21
Activity (MCF7 [1]): inactive
Activity (HMO2): inactive
Activity (Kato3): inactive

C/C=C1/C2=CCCN3C(=O)O[C@H]([C@H]1O)[C@H]23
Activity (MCF7 [1]): inactive
Activity (HMO2): inactive
Activity (Kato3): inactive
